Biological target: T1, TLK2 (Homo sapiens, UniProt Q86UE8)
T1 construct: purchased Thermo Fisher Scientific (Life Technologies) SelectScreen
Assay: SelectScreen LanthaScreen
Assay type: binding
Settings: read-out: % displacement
In short: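 SelectScreen broad panel; activity (Z'LYTE, Adapta) plus binding formats. ATP: Km app for CSF1R Z'LYTE; 10 for CAMK1 Adapta. Readout = % per kinase.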

T1 sequence (Q86UE8 whole entry): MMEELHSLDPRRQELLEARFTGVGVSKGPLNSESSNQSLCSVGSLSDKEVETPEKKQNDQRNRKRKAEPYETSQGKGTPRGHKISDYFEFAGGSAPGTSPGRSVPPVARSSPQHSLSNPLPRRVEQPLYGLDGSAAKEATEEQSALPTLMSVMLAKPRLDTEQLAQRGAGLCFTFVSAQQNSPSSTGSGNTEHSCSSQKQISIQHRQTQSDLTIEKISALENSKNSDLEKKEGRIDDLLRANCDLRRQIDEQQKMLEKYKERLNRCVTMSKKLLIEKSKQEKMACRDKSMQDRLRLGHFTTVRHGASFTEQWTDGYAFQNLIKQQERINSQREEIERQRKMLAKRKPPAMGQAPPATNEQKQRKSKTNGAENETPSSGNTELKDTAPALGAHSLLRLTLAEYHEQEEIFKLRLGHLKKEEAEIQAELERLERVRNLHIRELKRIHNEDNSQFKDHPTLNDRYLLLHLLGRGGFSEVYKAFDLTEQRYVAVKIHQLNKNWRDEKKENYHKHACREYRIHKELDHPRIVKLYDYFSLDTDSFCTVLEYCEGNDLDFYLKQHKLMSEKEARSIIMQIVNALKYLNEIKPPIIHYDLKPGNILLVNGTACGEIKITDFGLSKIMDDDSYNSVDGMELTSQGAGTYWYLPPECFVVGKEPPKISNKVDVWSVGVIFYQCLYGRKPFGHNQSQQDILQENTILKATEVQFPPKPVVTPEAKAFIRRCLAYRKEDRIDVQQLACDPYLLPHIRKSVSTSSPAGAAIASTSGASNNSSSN

In the case of `CN(C(=O)CN1CCOCC1)c1ccc2sc3c(-c4cccc5c(=O)cc(N6CC7CCC(C6)O7)oc45)cccc3c2c1` [NU5455], the inhibition at 1 µM is reported as -0.3%.

Reference: PMC6934184, “Selective DNA-PKcs inhibition extends the therapeutic index of localized radiotherapy and chemotherapy” (The Journal of Clinical Investigation, 2019)
